In patent US8785488B2 (Exelixis Patent Company LLC, priority 2009, dated 2014):

Columns and labels:
h-TGR5 = target: T1, h-TGR5 (Homo sapiens, UniProt Q8TDU6); test: TGR5 cAMP Assay using Cisbio cAMP Dynamic2 htrf kit (hTGR5CRE-luc HEK 293 cells); format: cell-based; conditions: h-TGR5 cAMP EC50, Table 1; read-out: cAMP (EC50)
T1 construct: expressed in transfected cells
T1 sequence (Q8TDU6 1-330): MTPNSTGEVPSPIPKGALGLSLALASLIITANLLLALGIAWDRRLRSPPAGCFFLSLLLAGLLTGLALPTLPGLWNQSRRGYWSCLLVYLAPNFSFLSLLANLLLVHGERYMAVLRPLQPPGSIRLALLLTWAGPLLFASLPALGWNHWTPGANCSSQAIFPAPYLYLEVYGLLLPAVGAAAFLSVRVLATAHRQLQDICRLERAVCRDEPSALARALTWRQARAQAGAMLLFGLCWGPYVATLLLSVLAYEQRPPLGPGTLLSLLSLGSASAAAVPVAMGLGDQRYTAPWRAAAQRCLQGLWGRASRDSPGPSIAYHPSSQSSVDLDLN
Summary of the method: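 […], 4000 hTGR5CRE-luc HEK 293 cells per well, with 0.5 mM IBMX and d2-cAMP, were incubated 30 min at room temperature with compounds in 8-point half-log series, in quadruplicate.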

human TGR5 (h-TGR5) = target: T2, human TGR5 (h-TGR5) (Homo sapiens, UniProt Q8TDU6); test: TGR5/CRE-Luciferiase Assay (HEK 293 hTGR5/CRE-Luc cells); format: cell-based; conditions: h-TGR5 CRE-Luc EC50, Table 1; read-out: CRE-Luc (EC50)
T2 construct: expressed in transfected cells
T2 sequence (Q8TDU6 1-330): T1 sequence (Q8TDU6 1-330)
Summary of the method: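 HEK293 cells stably carrying hTGR5 and a CRE-luciferase reporter were exposed to serially diluted compounds (diluted in DMEM with 5% DMSO) for 6 h. Cells were then lysed in luciferase buffer, luminescence was read, and EC50 values were derived from dose-response curves.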

EC50 (h-TGR5) [nM] | EC50 (human TGR5 (h-TGR5)) [nM] | Compound
< 100 | < 100 | CCOC(=O)NS(=O)(=O)c1ccc(CSc2ncc(C(C)(C)c3ccc(Cl)c(OC)c3)n2-c2ccc(F)cc2)c(Cl)c1 [ethyl {[3-chloro-4-({[5-{1-[4-chloro-3-(methyloxy)phenyl]-1-methylethyl}-1-(4-fluorophenyl)-1H-imidazol-2-yl]thio}methyl)phenyl]sulfonyl}carbamate]
< 100 | 100 to 1000 | CCOC(=O)NS(=O)(=O)c1ccc(CSc2ncc(C(C)(C)c3ccc(S(N)(=O)=O)c(Cl)c3)n2-c2ccc(F)cc2)c(Cl)c1 [ethyl {[4-({[5-{1-[4-(aminosulfonyl)-3-chlorophenyl]-1-methylethyl}-1-(4-fluorophenyl)-1H-imidazol-2-yl]thio}methyl)-3-chlorophenyl]sulfonyl}carbamate]
< 100 | < 100 | CCOC(=O)NS(=O)(=O)c1ccc(CSc2ncc(C(C)(C)c3ccc(Cl)c(OC)c3)n2-c2ccc(F)cc2)cc1F [ethyl {[4-({[5-{1-[4-chloro-3-(methyloxy)phenyl]-1-methylethyl}-1-(4-fluorophenyl)-1H-imidazol-2-yl]thio}methyl)-2-fluorophenyl]sulfonyl}carbamate]
< 100 | < 100 | CCOC(=O)NS(=O)(=O)c1ccc(CSc2ncc(C(C)(C)c3ccc(Cl)c(OC)c3)n2-c2ccc(F)cc2)c(F)c1 [ethyl {[4-({[5-{1-[4-chloro-3-(methyloxy)phenyl]-1-methylethyl}-1-(4-fluorophenyl)-1H-imidazol-2-yl]thio}methyl)-3-fluorophenyl]sulfonyl}carbamate]
100 to 1000 | 100 to 1000 | COC(=O)c1cc(CSc2ncc(C(C)(C)c3ccc(Cl)c(Cl)c3)n2-c2ccc(F)c(OC)c2)ccc1C#CCNC(=N)N [methyl 2-(3-{[amino(imino)methyl]amino}prop-1-yn-1-yl)-5-[({5-[1-(3,4-dichlorophenyl)-1-methylethyl]-1-[4-fluoro-3-(methyloxy)phenyl]-1H-imidazol-2-yl}thio)methyl]benzoate]
< 100 | < 100 | N-2-({[3-chloro-4-({[5-{1-[4-chloro-3- (methyloxy)phenyl]-1-methylethyl}-1-(4- fluorophenyl)-1H-imidazol-2-yl]thio}methyl)- 5-fluorophenyl]amino}carbonyl)-L-arginine
